Patent publication US20060240026A1, “Preventing and/or remedy hematopoietic tumor” (GREEN PEPTIDE CO., LTD., priority 2003, published 2006)
Several values for one entry are separate records, joined by “and”; a condition that tells them apart may be missing. Identical values can stand only once. Ends that are not written are not given here.

Experiments:
[1] = system: HLA-A24+ hematologic malignant cell line (PEER, REH); assay: 51Cr-release test of peptide-stimulated PBMCs against HLA-A24+ malignant line; assay type: cell-based, human; details: peptide-stimulated patient PBMCs further cultured with IL-2, effector/target 3, 10 or 30, 6 h
Protocol: Then, the cytotoxicity against hematologic malignant cell lines was examined by a standard ^51Cr-release test (Non-Patent Reference 5). Specifically, the PBMCs obtained were used as an effector to mix with ^51Cr-labelled target cells (hereinafter referred to as targets) at an effector/target rate of 3, 10 or 30, and then incubated for six hours, followed by measuring the radioactivity of ^51Cr released in the supernatants. The results obtained were indicated as % lysis which was calculated by regarding a radioactivity as 100% when the targets were completely dissolved. The following targets were used: PEER, an HLA-A24^+ hematologic malignant cell line; HPB-MLT, an HLA-A24^− hematologic malignant cell line; and an HLA-A24^+ PHA blastoid T-cell.

[2] = system: C1R-A24 cells pulsed with the peptides; assay: Peptide-specific cytotoxic activity of PBMCs of vaccinated multiple myeloma patient (51Cr-release); assay type: in vivo, human; details: for peptide-specific cytotoxic activity of PBMCs: MM patient No. 6, PBMCs acquired after the sixth vaccination; for cytotoxic activity (% lysis) against C1R-A24 cells pulsed with corresponding peptide: MM patient No. 6, with the increasing number of peptide vaccination
Description: The patient (patient No. 6 in table 2) subjected to clinical trials was a HLA-A24^+ […] suffering from IgA-type multiple myeloma with a stage III by Durie & Salmon's classification. The patient received multiple cycles of chemotherapy before participating in this clinical test and had acquired the resistance to chemotherapy. However, for four weeks before peptide vaccination, the patient had not received chemotherapy and administration with steroid or any other immunosuppressive drugs.
Three kinds of emulsions each of which contains each of these peptides respectively and an adjuvant were prepared according to the method described in Example 1, and vaccinated to the patient by injecting subcutaneously at different sites of the patient's lateral thigh. […] The skin test was conducted by injecting intradermally the solution of 50 μg of each peptide in physiological saline and determining immediate-type or delayed-type hypersensitivity reaction at 20 minutes or 24 hours after the injection.
The vaccinations were conducted seven times every two weeks using SART-1690 (SEQ ID NO: 4), Lck488 (SEQ ID NO: 2) and ART-1170 (SEQ ID NO: 10). The cytotoxic activity of PBMCs acquired after the sixth vaccination was measured according to the in vitro test described in Example 3. […] Therefore, in the eighth and later vaccinations, three kinds of emulsions each of which contains SART-1690 (SEQ ID NO: 4), Lck488 (SEQ ID NO: 2) or Lck208 (SEQ ID NO: 1) and an adjuvant were prepared according to the method described in Example 1 and used.
After the vaccinations, PBMCs derived from the patient were studied for their peptide-specific cytotoxic activity by ^51Cr-release test using C1R-A24 cells pulsed with the peptides used. […] On the other hand, their cytotoxic activity was extremely low against RPMI-8226 that is an HLA-A24^− myeloid cell line.

[3] = system: PBMCs of HLA-A24+ patients with hematologic malignancies; assay: IFN-γ production by peptide-stimulated patient PBMCs in response to peptide-pulsed C1R-A24 cells; assay type: cell-based, human; design: peptide-specific IFN-γ production: unit not given here; details: for peptide-specific IFN-γ production: 10 μM peptide in vitro, vs peptide-pulsed C1R-A24, HIV-peptide background subtracted; for Responding case/total (enhancement of IFN-γ production): ten HLA-A24+ patients with hematologic malignancies
Protocol: The induction of peptide-specific cytotoxic T lymphocytes from PBMCs of a patient with hematologic malignancy was conducted as reported preveously (Non-Patent Reference 5). The following peptides were used to induce cytotoxic T lymphocytes: p56^lck protein-derived peptides (Lck208 (SEQ ID NO: 1), Lck488 (SEQ ID NO: 2) and Lck486 (SEQ ID NO: 3)); SART-1-derived peptide (SART-1690 (SEQ ID NO: 4)); SART-2-derived peptides (SART-293 (SEQ ID NO: 5), SART-2161 (SEQ ID NO: 6) and SART-2899 (SEQ ID NO: 7)); SART-3-derived peptides (SART-3109 (SEQ ID NO: 8) and SART-3315 (SEQ ID NO: 9)); and ART-1-derived peptide (ART-1170 (SEQ ID NO: 10)). All of these peptides are the epithelial cancer-related antigen-derived peptides and have the ability to induce cytotoxic T lymphocytes from PBMCs of an epithelial cancer patient in an HLA-A24 dependent manner (Non-Patent References 3-6 and 12). A human immunodeficiency virus (HIV)-derived peptide (SEQ ID NO: 11) and Epstein-Barr virus (EBV)-derived peptide (SEQ ID NO: 12) were used respectively as a negative control peptide and positive control peptide both of which have an HLA-A24-binding motif. […] PBMCs were prepared from peripheral blood that was collected from a patient with hematologic malignancy using Ficoll-Conray density-gradient centrifugation. The expression of HLA-A24 molecules on PBMCs was determined using flow cytometry by a well known method (Non-Patent Reference 5). The induction of cytotoxic T lymphocytes from PBMCs was conducted as follows. […] The culture medium consisted of 45% RPMI-1640, 45% AIM-V (Invitrogen), 10% FCS, 100 U/ml of interleukin-2 (IL-2), and 0.1 mM MEM non-essential amino acid solution (Invitrogen). […] The background IFN-γ production in response to the HIV-derived peptide (SEQ ID NO: 11) was subtracted from the values given in the data. When the mean value of the IFN-γ produced from the peptide-stimulated PBMCs in response to a corresponding peptide was higher than that produced in response to the HIV peptide (SEQ ID NO: 11), it was judged that the precursor of a peptide-specific cytotoxic T lymphocyte was present in the PBMCs and that the peptide-specific cytotoxic T lymphocytes were induced by the peptide. PBMCs of ten cases of HLA-A24^+ patients with hematologic malignancies (two cases with CLL, one case with MCL, one case with NHL, one case with B-ALL, one case with MM, one case with MDS, two cases with ATL, and one case with T-ALL) were tested for the induction of cytotoxic T lymphocytes using peptides that were derived from p56^lck protein, SART-1, SART-2, SART-3 and ART-1. The peptides used were the peptides that induced peptide-specific tumor-reactive cytotoxic T lymphocytes from PBMCs of an HLA-A24^+ epithelial cancer patient, which are currently on clinical trials for use as vaccines for epithelial cancer patients. The PBMCs were stimulated with the peptide in vitro to measure the peptide-specific IFN-γ production.

Row | Compound | cytotoxic activity (% lysis) against HLA-A24+ hematologic malignant line ([1]; listed as EBV derive peptides) | cytotoxic activity (% lysis) against HLA-A24+ hematologic malignant line ([1]; listed as EBV-derived peptide) | cytotoxic activity (% lysis) against HLA-A24+ hematologic malignant line ([1]; listed as Epstein-Barr virus (EBV)-derived peptide) | peptide-specific cytotoxic activity of PBMCs [2] | peptide-specific IFN-γ production ([3]; PBMCs of patient #1 CLL) | peptide-specific IFN-γ production ([3]; PBMCs of patient #2 CLL) | peptide-specific IFN-γ production ([3]; PBMCs of patient #3 MCL) | peptide-specific IFN-γ production ([3]; PBMCs of patient #4 NHL) | peptide-specific IFN-γ production ([3]; PBMCs of patient #5 B-ALL) | peptide-specific IFN-γ production ([3]; PBMCs of patient #6 MM) | peptide-specific IFN-γ production ([3]; PBMCs of patient #7 MDS) | peptide-specific IFN-γ production ([3]; PBMCs of patient #8 ATL) | peptide-specific IFN-γ production ([3]; PBMCs of patient #9 ATL) | peptide-specific IFN-γ production ([3]; PBMCs of patient #10 T-ALL) | Responding case/total (enhancement of IFN-γ production) [3] | cytotoxic activity (% lysis) against HLA-A24+ hematologic malignant line ([1]; listed as HIV-derived peptide) | cytotoxic activity (% lysis) against HLA-A24+ hematologic malignant line ([1]; listed as human immunodeficiency virus (HIV)-derived peptide) | cytotoxic activity (% lysis) against C1R-A24 cells pulsed with corresponding peptide [2]
1 | CSCC[C@H](NC(=O)[C@H](Cc1ccccc1)NC(=O)[C@@H](NC(=O)[C@@H]1CCCN1C(=O)CNC(=O)[C@H](Cc1ccc(O)cc1)NC(=O)[C@@H](N)[C@@H](C)O)C(C)C)C(=O)N[C@@H](CS)C(=O)N[C@@H](CC(C)C)C(=O)O [EBV, reference compound] | not observed | exhibited no cytotoxic activity | exhibited no cytotoxic activity | – | – | – | – | – | – | – | – | – | – | – | – | – | – | –
2 | SART-1690: SART-1-derived peptide; epithelial cancer-related antigen peptide (EYRGFTQDF; Partial peptide of SART-1) | – | – | – | observed | 0 | 486 | 0 | 53 | 8 | 141 | 0 | 55 | 155 | 26 | 3/10 | – | – | –
3 | RYLRDQQLLGI [HIV, reference compound] | – | – | – | – | – | – | – | – | – | – | – | – | – | – | – | not observed | exhibited no cytotoxic activity | –
4 | SART-3315: SART-3-derived peptide; epithelial cancer-related antigen peptide (AYIDFEMKI; Partial peptide of SART-3) | – | – | – | – | 39 | 137 | 6 | 0 | 11 | 0 | 0 | 22 | 60 | 6 | 1/10 | – | – | –
5 | Lck208: p56lck protein-derived peptide, N-terminal residue at position 208; epithelial cancer-related antigen peptide (HYTNASDGL; Partial peptide of p56lck protein) | – | – | – | observed | 0 | 2 | 22 | 30 | 0 | 0 | 0 | 0 | 445 | 153 | two and 2/10 | – | – | enhanced induction of cytotoxic activity
6 | Lck488: p56lck protein-derived peptide; epithelial cancer-related antigen peptide (DYLRSVLEDF; Partial peptide of p56lck protein) | – | – | – | observed | 0 | 0 | 0 | 0 | 6 | 182 | 102 | 476 | 304 | 0 | four and 4/10 | – | – | enhanced induction of cytotoxic activity
